Values of other authors as cited in patent US11419848B2, “Combination of unsaponifiable lipids combined with polyphenols and/or catechins for the protection, treatment and repair of cartilage in joints of humans and animals” (NUTRAMAX LABORATORIES, INC., priority 2004, dated 2022).

Columns and labels:
[1] = test system: IL-1 induced expression of nitric oxide synthase and nitric oxide production
carrageenan paw oedema = details: rats, extracts of Verbena officinalis
[2] = identified in ethanolic extract of cactus
[3] = test system: chronic inflammation model; details: administered topically and in a chronic inflammation model, mouse

| Structure (SMILES) | IL-1 induced expression of nitric oxide synthase and nitric oxide production [1] | activation of nuclear factor-kB [1] | anti-inflammatory activity (carrageenan paw oedema) | anti-inflammatory activity [2] | anti-inflammatory activity [3] |
| --- | --- | --- | --- | --- | --- |
| O=C(O[C@@H]1Cc2c(O)cc(O)cc2O[C@@H]1c1cc(O)c(O)c(O)c1)c1cc(O)c(O)c(O)c1 [EGCG, epigallocatechin gallate] | inhibits | suppresses | – | – | – |
| CC[C@H](CC[C@@H](C)[C@H]1CC[C@H]2[C@@H]3CC=C4C[C@@H](O)CC[C@]4(C)[C@H]3CC[C@]12C)C(C)C [beta sitosterol] | – | – | one of the potent anti-inflammatory agents | anti-inflammatory activity | potent anti-inflammatory agents |
| CC[C@H](/C=C/[C@@H](C)[C@H]1CC[C@H]2[C@@H]3CC=C4C[C@@H](O)CC[C@]4(C)[C@H]3CC[C@]12C)C(C)C [stigmasterol] | – | – | – | – | potent anti-inflammatory agents |
